Test results taken from patent publication US7008945B1, “Amide derivatives” (AstraZeneca AB, priority 1999, dated 2006).

Tests used:
p38α = target: T1, p38α (Homo sapiens, UniProt Q16539); test: In vitro enzyme assay, p38α; assay type: biochemical; conditions: read-out: IC50 against p38α
T1 construct: c-myc (N); 6His (N); made in house; host or cells: E. coli (PET vectors)
Method: (§1) The ability of compounds of the invention to inhibit the enzyme p38 kinase was assessed. Activity of test compounds against each of the p38α and p38β isoforms of the enzyme was determined. […]
(§2) Test compounds were solubilised in DMSO and 10 μl of a 1:10 diluted sample in ‘Kinase Buffer’ was added to a well in a Microtiter plate. […] The precipitated protein was phosphorylated by p38 kinase and test compounds were assessed for their ability to inhibit this phosphorylation. The plates were filtered using a Canberra Packard Unifilter and washed with 2% TCA, dried overnight and counted on a Top Count scintillation counter.
(§3) Test compounds were tested initially at a single dose and active compounds were retested to allow IC50 values to be determined.

TNFα production = test: Human Whole Blood test (LPS-stimulated TNFα production); assay type: cell-based; conditions: inhibition of TNFα production in LPS-stimulated human whole blood
Method: The ability of the compounds of this invention to inhibit TNFα production was also assessed in a human whole blood assay. Human whole blood secretes TNFα when stimulated with LPS. This property of blood forms the basis of an assay which is used as a secondary test for compounds which profile as active in the PBMC test.
Heparinised (10 units/ml) human blood was obtained from volunteers. 160 μl whole blood were added to 96 well round-bottom plates (Corning 25850). Compounds were solubilised and serially diluted in RPMI 1640 medium (Gibco) supplemented with 50 units/ml penicillin, 50 μg/ml streptomycin and 2 mM glutamine, as detailed above. 20 μl of each test concentration was added to appropriate wells (triplicate cultures), 20 μl of RPMI 1640 medium supplemented with antibiotics and glutamine was added to control wells. Plates were incubated for 30 minutes at 37° C. (humidified incubator), prior to addition of 20 μl LPS (final concentration 10 μg/ml). RPMI 1640 medium was added to control wells. Six “LPS alone” and four “medium alone” controls were included on each plate. A known TNFα synthesis/secretion inhibitor was included in each test. Plates were incubated for 6 hours at 37° C. (humidified incubator). Plates were centrifuged (2000 rpm for 10 minutes) and 100 μl plasma removed and stored at −70° C. (Corning 25850 plates). TNFα levels were measured by ELISA (see WO92/10190 and Current Protocols in Molecular Biology, vol 2 by Frederick M. Ausbel et al., John Wiley and Sons Inc.). The paired antibodies that were used in the ELIZA were obtained from R&D Systems (catalogue nos. MAB610 anti-human TNFA coating antibody, BAF210 biotinylated anti-human TNFα detect antibody).

p38β = target: T2, p38β (Homo sapiens, UniProt Q15759); test: In vitro enzyme assay, p38β; assay type: biochemical; conditions: read-out: IC50 against p38β
T2 construct: Human recombinant p38α and p38β isoforms were produced as 5′ c-myc, 6His tagged proteins; fused on or other part: N-terminal c-myc and 6His tags
T2 sequence (Q15759 whole entry, the tested form may be a part, canonical isoform): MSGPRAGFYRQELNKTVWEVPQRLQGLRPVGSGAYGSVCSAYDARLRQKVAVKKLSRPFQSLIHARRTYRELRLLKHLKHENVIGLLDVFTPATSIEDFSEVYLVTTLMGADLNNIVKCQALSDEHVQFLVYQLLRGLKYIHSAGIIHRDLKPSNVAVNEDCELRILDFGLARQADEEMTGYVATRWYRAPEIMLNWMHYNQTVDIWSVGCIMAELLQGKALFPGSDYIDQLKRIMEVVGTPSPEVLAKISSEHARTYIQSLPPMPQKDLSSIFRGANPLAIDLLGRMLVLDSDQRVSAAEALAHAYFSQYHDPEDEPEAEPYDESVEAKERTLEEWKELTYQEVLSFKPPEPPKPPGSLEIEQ
Method: as §1, §2, §3

T1 sequence (Q16539 whole entry): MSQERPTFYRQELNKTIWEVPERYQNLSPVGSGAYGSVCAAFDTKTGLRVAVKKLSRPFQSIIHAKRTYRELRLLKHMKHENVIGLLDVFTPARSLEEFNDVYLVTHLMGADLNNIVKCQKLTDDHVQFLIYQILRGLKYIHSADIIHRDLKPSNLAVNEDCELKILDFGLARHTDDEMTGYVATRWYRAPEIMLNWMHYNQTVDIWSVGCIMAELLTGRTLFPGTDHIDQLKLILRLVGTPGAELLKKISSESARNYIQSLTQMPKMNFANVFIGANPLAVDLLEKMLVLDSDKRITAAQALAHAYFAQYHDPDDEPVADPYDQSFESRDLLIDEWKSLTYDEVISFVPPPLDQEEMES

Row | IC50 (p38α) [nM] | IC50 (TNFα production) [nM] | IC50 (p38β) [nM] | Compound
1 | ~200 | ~2000 | – | Cc1ccc(NC(=O)c2ccnc(N3CCOCC3)c2)cc1-n1cnc2ccc(N(C)CCCN(C)C)cc2c1=O [6-[N-(3-dimethylaminopropyl)-N-methylamino]-3-[2-methyl-5-(2-morpholinopyrid-4-ylcarbonylamino)phenyl]-3,4-dihydroquinazolin-4-one]
2 | – | ~5000 | ~50 | CN(C)CCCN(C)c1ccc2ncn(-c3cccc(NC(=O)c4ccnc(N5CCOCC5)c4)c3)c(=O)c2c1 [6-[N-(3-dimethylaminopropyl)-N-methylamino]-3-[5-(2-morpholinopyrid-4-ylcarbonylamino)phenyl]-3,4-dihydroquinazolin-4-one]
3 | ~100 | ~7000 | – | Cc1ccc(NC(=O)c2ccnc(N3CCOCC3)c2)cc1-n1cnc2c(N(C)CCCN(C)C)cccc2c1=O [8-[-(3-dimethylaminopropyl)-N-methylamino]-3-[2-methyl-5-(2-morpholinopyrid-4-ylcarbonylamino)phenyl]-3,4-dihydroquinazolin-4-one]
